Test results from the NIST ThermoML archive (doi:10.1021/je1009619).
± gives the expanded uncertainty stated by the source.

Legend:
[1] = Liquid, Vibrating tube method
[2] = xn = mol fraction of the nth substance listed; conditions: Liquid, Vibrating tube method, x1 = 1

## C=C(C)[C@H]1CC=C(C)CC1 [(R)-1-methyl-4-(1-methylethenyl)cyclohexene]
[1]; 283.15 K, 20000 kPa
  mass density: 862 ± 0.9 kg/m3
[1]; 283.15 K, 25000 kPa
  mass density: 864.9 ± 0.9 kg/m3
[1]; 283.15 K, 30000 kPa
  mass density: 867.7 ± 0.9 kg/m3
[1]; 283.15 K, 35000 kPa
  mass density: 870.4 ± 0.9 kg/m3
[1]; 283.15 K, 40000 kPa
  mass density: 873.3 ± 1 kg/m3
[1]; 298.15 K, 20000 kPa
  mass density: 851.5 ± 0.9 kg/m3
[1]; 298.15 K, 25000 kPa
  mass density: 854.5 ± 0.9 kg/m3
[1]; 298.15 K, 30000 kPa
  mass density: 857.6 ± 0.9 kg/m3
[1]; 298.15 K, 35000 kPa
  mass density: 860.9 ± 0.9 kg/m3
[1]; 298.15 K, 40000 kPa
  mass density: 863.4 ± 1 kg/m3
[1]; 313.15 K, 20000 kPa
  mass density: 841 ± 0.9 kg/m3
[1]; 313.15 K, 25000 kPa
  mass density: 844.2 ± 0.9 kg/m3
[1]; 313.15 K, 30000 kPa
  mass density: 847.2 ± 0.9 kg/m3
[1]; 313.15 K, 35000 kPa
  mass density: 850.3 ± 0.9 kg/m3
[1]; 313.15 K, 40000 kPa
  mass density: 853.3 ± 1 kg/m3
[1]; 328.15 K, 20000 kPa
  mass density: 830.5 ± 0.9 kg/m3
[1]; 328.15 K, 25000 kPa
  mass density: 833.8 ± 0.9 kg/m3
[1]; 328.15 K, 30000 kPa
  mass density: 837.2 ± 0.9 kg/m3
[1]; 328.15 K, 35000 kPa
  mass density: 840.4 ± 1 kg/m3
[1]; 328.15 K, 40000 kPa
  mass density: 843.8 ± 1 kg/m3
[1]; 343.15 K, 20000 kPa
  mass density: 820.1 ± 0.9 kg/m3
[1]; 343.15 K, 25000 kPa
  mass density: 823.7 ± 0.9 kg/m3
[1]; 343.15 K, 30000 kPa
  mass density: 827.3 ± 0.9 kg/m3
[1]; 343.15 K, 35000 kPa
  mass density: 831.1 ± 1 kg/m3
[1]; 343.15 K, 40000 kPa
  mass density: 834.6 ± 1 kg/m3
[1]; 358.15 K, 20000 kPa
  mass density: 810.2 ± 0.9 kg/m3
[1]; 358.15 K, 25000 kPa
  mass density: 813.9 ± 0.9 kg/m3
[1]; 358.15 K, 30000 kPa
  mass density: 817.6 ± 0.9 kg/m3
[1]; 358.15 K, 35000 kPa
  mass density: 821.3 ± 1 kg/m3
[1]; 358.15 K, 40000 kPa
  mass density: 824.8 ± 1 kg/m3

## C=C(C)[C@H]1CC=C(C)CC1 [(R)-1-methyl-4-(1-methylethenyl)cyclohexene] + CC1=CC[C@H]2C[C@@H]1C2(C)C
[2]; 283.15 K, 20000 kPa
  mass density: 862 ± 0.9 kg/m3
[2]; 283.15 K, 25000 kPa
  mass density: 864.9 ± 0.9 kg/m3
[2]; 283.15 K, 30000 kPa
  mass density: 867.7 ± 0.9 kg/m3
[2]; 283.15 K, 35000 kPa
  mass density: 870.4 ± 0.9 kg/m3
[2]; 283.15 K, 40000 kPa
  mass density: 873.3 ± 1 kg/m3
[2]; 298.15 K, 20000 kPa
  mass density: 851.5 ± 0.9 kg/m3
[2]; 298.15 K, 25000 kPa
  mass density: 854.5 ± 0.9 kg/m3
[2]; 298.15 K, 30000 kPa
  mass density: 857.6 ± 0.9 kg/m3
[2]; 298.15 K, 35000 kPa
  mass density: 860.9 ± 0.9 kg/m3
[2]; 298.15 K, 40000 kPa
  mass density: 863.4 ± 1 kg/m3
[2]; 313.15 K, 20000 kPa
  mass density: 841 ± 0.9 kg/m3
[2]; 313.15 K, 25000 kPa
  mass density: 844.2 ± 0.9 kg/m3
[2]; 313.15 K, 30000 kPa
  mass density: 847.2 ± 0.9 kg/m3
[2]; 313.15 K, 35000 kPa
  mass density: 850.3 ± 0.9 kg/m3
[2]; 313.15 K, 40000 kPa
  mass density: 853.3 ± 1 kg/m3
[2]; 328.15 K, 20000 kPa
  mass density: 830.5 ± 0.9 kg/m3
[2]; 328.15 K, 25000 kPa
  mass density: 833.8 ± 0.9 kg/m3
[2]; 328.15 K, 30000 kPa
  mass density: 837.2 ± 0.9 kg/m3
[2]; 328.15 K, 35000 kPa
  mass density: 840.4 ± 1 kg/m3
[2]; 328.15 K, 40000 kPa
  mass density: 843.8 ± 1 kg/m3
[2]; 343.15 K, 20000 kPa
  mass density: 820.1 ± 0.9 kg/m3
[2]; 343.15 K, 25000 kPa
  mass density: 823.7 ± 0.9 kg/m3
[2]; 343.15 K, 30000 kPa
  mass density: 827.3 ± 0.9 kg/m3
[2]; 343.15 K, 35000 kPa
  mass density: 831.1 ± 1 kg/m3
[2]; 343.15 K, 40000 kPa
  mass density: 834.6 ± 1 kg/m3
[2]; 358.15 K, 20000 kPa
  mass density: 810.2 ± 0.9 kg/m3
[2]; 358.15 K, 25000 kPa
  mass density: 813.9 ± 0.9 kg/m3
[2]; 358.15 K, 30000 kPa
  mass density: 817.6 ± 0.9 kg/m3
[2]; 358.15 K, 35000 kPa
  mass density: 821.3 ± 1 kg/m3
[2]; 358.15 K, 40000 kPa
  mass density: 824.8 ± 1 kg/m3

## CC1=CC[C@H]2C[C@@H]1C2(C)C [(S)-2-pinene]
[1]; 283.15 K, 20000 kPa
  mass density: 880 ± 0.9 kg/m3
[1]; 283.15 K, 25000 kPa
  mass density: 883.2 ± 0.9 kg/m3
[1]; 283.15 K, 30000 kPa
  mass density: 886.3 ± 0.9 kg/m3
[1]; 283.15 K, 35000 kPa
  mass density: 889.4 ± 0.9 kg/m3
[1]; 283.15 K, 40000 kPa
  mass density: 892.5 ± 1 kg/m3
[1]; 298.15 K, 20000 kPa
  mass density: 868.8 ± 0.9 kg/m3
[1]; 298.15 K, 25000 kPa
  mass density: 872.1 ± 0.9 kg/m3
[1]; 298.15 K, 30000 kPa
  mass density: 875.3 ± 0.9 kg/m3
[1]; 298.15 K, 35000 kPa
  mass density: 878.6 ± 0.9 kg/m3
[1]; 298.15 K, 40000 kPa
  mass density: 881.9 ± 1 kg/m3
[1]; 313.15 K, 20000 kPa
  mass density: 858 ± 0.9 kg/m3
[1]; 313.15 K, 25000 kPa
  mass density: 861.3 ± 0.9 kg/m3
[1]; 313.15 K, 30000 kPa
  mass density: 864.7 ± 0.9 kg/m3
[1]; 313.15 K, 35000 kPa
  mass density: 867.9 ± 0.9 kg/m3
[1]; 313.15 K, 40000 kPa
  mass density: 871.3 ± 1 kg/m3
[1]; 328.15 K, 20000 kPa
  mass density: 846.7 ± 0.9 kg/m3
[1]; 328.15 K, 25000 kPa
  mass density: 850.4 ± 0.9 kg/m3
[1]; 328.15 K, 30000 kPa
  mass density: 854 ± 0.9 kg/m3
[1]; 328.15 K, 35000 kPa
  mass density: 857.5 ± 0.9 kg/m3
[1]; 328.15 K, 40000 kPa
  mass density: 861.1 ± 1 kg/m3
[1]; 343.15 K, 20000 kPa
  mass density: 835.9 ± 0.9 kg/m3
[1]; 343.15 K, 25000 kPa
  mass density: 839.7 ± 0.9 kg/m3
[1]; 343.15 K, 30000 kPa
  mass density: 843.8 ± 0.9 kg/m3
[1]; 343.15 K, 35000 kPa
  mass density: 847.7 ± 1 kg/m3
[1]; 343.15 K, 40000 kPa
  mass density: 851.4 ± 1 kg/m3
[1]; 358.15 K, 20000 kPa
  mass density: 825 ± 0.9 kg/m3
[1]; 358.15 K, 25000 kPa
  mass density: 829.2 ± 0.9 kg/m3
[1]; 358.15 K, 30000 kPa
  mass density: 833.3 ± 0.9 kg/m3
[1]; 358.15 K, 35000 kPa
  mass density: 837.4 ± 1 kg/m3
[1]; 358.15 K, 40000 kPa
  mass density: 841.5 ± 1 kg/m3
